Test results as given in patent US10111847B2, “Compounds and methods for modulating vascular injury” (The Regents of the University of California, priority 2012, dated 2018).

Assays:
[1] = system: human saphenous vein vascular smooth muscle (sv-VSMC) cells; assay: TNFα induced superoxide production (DHE) in sv-VSMC (Maresin-1); assay type: cell-based; conditions: 100 nM; TNFα 10 ng/ml 4 hr
Description: Mar-1. Cells were grown in 8-well chamber slides at a density of 15000 cells/well for 2 days for VSMCs and 50000 cells/well for 2 days for ECs in a 96 well plate. After treatments, cells were incubated with dihydroethidium (DHE, 3 μM, Invitrogen) or CellRox (Invitrogen Inc, 5 μM for ECs) in media for 30 minutes at 37° C. in a humidified chamber with 5% CO2 protected from light. DAPI nuclear counter staining was utilized for DHE staining. For DHE, fluorescence was detected with TRITC filter allowing the detection of the DHE emission wavelength of 590-620 nm. Fluorescence quantitation was performed using ImageJ analysis software. For ECs, fluorescence measurements were taken using a Spectramax M2e plate reader.
FIGS. 13A-13D. Representative merged images of DHE staining, counterstained with DAPI. (A), Negative control. (B), TNFα at 10 ng/ml for 4 hr. […] (E) Quantitative comparison of DHE staining intensity in the nucleus of human saphenous vein vascular smooth muscle (sv-VSMC) cells, treated with TNFα and 7S and 7R-Maresin-1 with and without pertussis toxin. (F) Quantitative comparison of cellular ROS production by CellRox (Life technologies, Carlsbad, Calif.) in human saphenous vein endothelial (EC) cells treated with TNFα (1 ng/nil) and 7S-Maresin-1 (N>=3). […]

p65 subunit = assay: Nuclear translocation of p65 subunit in sv-VSMCs (immunofluorescence); assay type: cell-based, human; conditions: 100 nm, 30 min; TNFα 10 ng/ml 2 hrs
Description: Immunofluorescence for p65 (RelA): 15000 VSMCs or 30000 ECs were seeded on a 8-well chamber slide. Cells received 30 min of Maresin-1 pretreatment, followed by TNF-α for 2 hr. Cells were fixed in 2% paraformaldehyde, followed by permeabilization with ice-cold acetone (10 min) and 1% Triton X-100 (20 min). Cells were incubated overnight in a humidified chamber with anti-p65 antibody (Santa Cruz Biotechnology Inc.) followed by Alexa-fluor 488 tagged secondary antibody (Life Technologies) and were visualized under a fluorescent microscope.
FIGS. 16A-16D. VSMCs were grown in chamber slides and treated with vehicle or 100 nm of 7S or 7R-Maresin-1 with/without 10 ng/ml pertussis toxin for 30 min, followed by TNFα (10 ng/ml) for 2 hrs. Cells were fixed and subsequently stained with anti-p65 (Santa Cruz Biotechnology) and secondary antibodies (Alexa-488). (A-D) Representative images of Ctrl (A), TNFα (B), 7R-Maresin-1+TNFα (C) and 7R-Maresin-1+pertussis toxin (10 ng/ml)+TNFα. (E) Mean fluorescence of nucleus and cytoplasm were quantified from all groups and the net result of the ratio of nucleus over cytoplasmic mean fluorescence is depicted in the bar graph, as a measure of relative p65 nuclear translocation. (N>=3). […]

IKKα/β subunit [2] = assay: TNFα induced phosphorylation of IKKα/β in sv-VSMCs, western blot; assay type: cell-based, human; conditions: 100 nm, 30 min; TNFα 10 ng/ml 15 min
Description: (§1) Mar-1. VSMCs and ECs were lysed in buffer (20 mM Tris-Hcl, 137 mM NaCl, 10% Glycerol, 1% NP-40) with protease and phosphatase inhibitors (Halt inhibitor capsules, Pierce, Inc) by sonication on ice. The lysates were instantly snap frozen in liquid nitrogen and thawed back later for western blotting. After centrifugation (15,000 g for 20 minutes), the whole cell extract (supernatant) was collected and was heated at 100° C. in Laemlli buffer for 6 minutes. Lysates were run on Mini-Protean TGX gels
(§2) (Biorad) and transferred on PVDF membranes which were probed with appropriate primary and secondary antibodies and visualized for quantitation using q-dot nanocrystals (Life Technologies, Inc).
(§3) Cells were pretreated with 100 nm of 7S/7R-Maresin-1 for 30 min, followed by TNFα (10 ng/ml for VSMC and 1 ng/ml for EC) for 15 min. Whole cell lysates were collected and probed for pan and phospho IKK (Cell Signaling Inc.).
(§4) FIG. 18. IKK-phospho and total IKK western blotting image is representative of three independent experiments. Bar graph represents net quantitative densitometry analysis. N=3. P≤0.05, One-way ANOVA with Dunnett's post hoc test. *: P≤0.05 compared to control, unpaired t-test. †: P≤0.05 compared to TNFα, unpaired t-test. Error bars: SEM.

IKKα/β subunit [3] = assay: TNFα induced phosphorylation of IKKα/β in sv-ECs, western blot; assay type: cell-based, human; conditions: 100 nm, 30 min; TNFα 1 ng/ml 15 min
Description: as §1, §2, §3, §4

carotid artery = assay: Mouse carotid artery ligation model, neointima formation; assay type: in vivo, FVB Mice; conditions: intraperitoneal 100 ng/dose on days 0, 1, 3, 5 and 7; sacrificed at 14 days
Description: To examine the potential therapeutic effects of systemic administration of pro-resolving mediators in acute vascular injury, a standardized mouse model of carotid ligation was employed. FVB Mice (N=23) were treated with intraperitoneal administration of RvD2 (100 ng/dose), 7R Mar-1 (100 ng/dose) or vehicle on days 0 (4 hrs prior to carotid injury), 1, 3, 5 and 7. Total dose received was 500 ng/mouse. Unilateral carotid ligation was performed as a standardized model of vascular injury, induced by low shear. Animals were then sacrificed at 14 days and perfusion-fixed vessels explanted for analysis. Following elastin staining, neointima (NI) and medial (M) compartments were measured by a blinded observer, and ratios (area and average wall thickness) calculated. Analysis was performed at mid CCA level (2.5 mm from ligature).
FIG. 22. (A)-(C), depict a cross-section of a carotid artery at mid CCA level (2.5 mm from ligature) from carotid ligation mouse model administered vehicle (A), RvD2 (B), or 7R-Mar-1 (C). (D)-(E) depict NUM ratio of the cross-section of the carotid artery at mid CCA level from carotid ligation mouse model administered vehicle, RvD2, or 7R-Mar-1. […]

MCP-1 = MCP-1 expression in TNF-α stimulated VSMCs by qRT-PCR; assay type: cell-based, human; conditions: 10, 100 nM; TNF-α 10 ng/ml 18 hours; P<0.05
Description: FIGS. 15A-15D. Representative images of Calcein-AM labeled U937 monocytes adhered to human sv-VSMCs pretreated with vehicle (A, B) or 7S-Maresin-1 (C) or 7S-Maresin-1 and pertussis toxin (D) for 30 min, followed by TNFα at 10 ng/ml for 4 hr (B, C, D). (E) Quantitative analysis of U937 adhesion assay in human sv-VSMCs and (F) human sv-ECs (1 ng/ml TNFα used for EC cells). P≤0.05, One-way ANOVA with Dunnett's post hoc test. *: P≤0.05 compared to control, unpaired t-test. †: P≤0.05 compared to TNFα, unpaired t-test. ‡: P≤0.05 compared to TNFα+7S-Maresin-1, unpaired t-test. (G) VSMCs were pretreated with 7S-Maresin-1 or vehicle for 30 min, followed by TNFα at 10 ng/ml for 4 hr. Whole cell lysates were blotted for VCAM-1 (Pierce Inc.) and beta-actin (Sigma). VCAM-1 and beta-actin western blotting image is representative of three independent experiments. Bar graph represents net quantitative densitometry analysis. N=3. P=0.06, One-way ANOVA with Kruskal Wallis nonparametric test. P=0.07 of TNFα, compared to control, Mann Whitney test. P=0.20 of 7S-Maresin-1 at 10 nm and 100 nm compared to TNFα, Mann Whitney test. Error bars: SEM. […] Expression of MCP-1 was measured by qRT-PCR, and normalized to unstimulated cells (n=3, results are mean±SEM, P<0.05 for Mar-1 (10 and 100 nM) vs TNF alone, unpaired t-test).

| Structure (SMILES) | TNF-α-induced superoxide production in VSMC [1] | nuclear translocation of p65 subunit in human sv-VSMCs (p65 subunit) | TNFα induced phosphorylation of IKKα/β subunit in human sv-VSMCs (IKKα/β subunit [2]) | TNFα induced phosphorylation of IKKα/β subunit in human sv-ECs (IKKα/β subunit [3]) | neointima formation following carotid artery ligation (carotid artery) | MCP-1 expression by TNF-α stimulated VSMCs (MCP-1) |
| --- | --- | --- | --- | --- | --- | --- |
| CC/C=C\C/C=C\C[C@@H](O)\C=C/C=C/C=C/[C@@H](O)C/C=C\CCC(=O)O [7R-Maresin-1, 7R,14S-dihydroxydocosa-4Z,8E,10E,12Z,16Z,19Z-hexaenoic acid] | Reduce | Inhibit | Reduce | Reduce | Reduces | – |
| CC/C=C\C/C=C\CC(O)\C=C/C=C/C=C/C(O)C/C=C\CCC(=O)O (stereo not drawn) [Mar-1, maresin 1 (7, 14-dihydroxy DHA)] | – | – | – | – | – | reduced |
